Test results: ChEMBL document CHEMBL1201862, “PubChem BioAssay data set” (2004)
Blank lines part the entries; values can stand above or below the compound they belong to. Activity calls are given as the source filed them.

What was measured:
[1] = biological target: T1, Tyrosine-protein phosphatase non-receptor type 7 (Homo sapiens, UniProt P35236); type: functional
T1 sequence (P35236 whole entry): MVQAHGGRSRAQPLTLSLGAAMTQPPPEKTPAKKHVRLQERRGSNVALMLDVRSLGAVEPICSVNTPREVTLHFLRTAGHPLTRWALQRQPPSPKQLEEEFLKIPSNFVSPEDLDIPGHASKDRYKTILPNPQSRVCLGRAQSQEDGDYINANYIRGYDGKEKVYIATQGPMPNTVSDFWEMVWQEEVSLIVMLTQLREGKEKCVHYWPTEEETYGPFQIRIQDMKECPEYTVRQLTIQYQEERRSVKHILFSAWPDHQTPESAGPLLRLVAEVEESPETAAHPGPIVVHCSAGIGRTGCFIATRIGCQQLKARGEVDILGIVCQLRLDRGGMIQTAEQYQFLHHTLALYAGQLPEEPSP

[2] = biological target: 5-hydroxytryptamine receptor 5A (Homo sapiens, UniProt P47898); assay: Counterscreen for agonists of OPRM1-OPRD1 heterodimerization: luminescence-based cell-based high throughput dose response assay to identify agonists of 5-hydroxytryptamine (serotonin) 5A receptor (HTR5A). [Related pubchem assays (depositor defined):AID504326, AID504355, AID504692, AID504904, AID504905]; type: functional
5-hydroxytryptamine receptor 5A, sequence (P47898 whole entry): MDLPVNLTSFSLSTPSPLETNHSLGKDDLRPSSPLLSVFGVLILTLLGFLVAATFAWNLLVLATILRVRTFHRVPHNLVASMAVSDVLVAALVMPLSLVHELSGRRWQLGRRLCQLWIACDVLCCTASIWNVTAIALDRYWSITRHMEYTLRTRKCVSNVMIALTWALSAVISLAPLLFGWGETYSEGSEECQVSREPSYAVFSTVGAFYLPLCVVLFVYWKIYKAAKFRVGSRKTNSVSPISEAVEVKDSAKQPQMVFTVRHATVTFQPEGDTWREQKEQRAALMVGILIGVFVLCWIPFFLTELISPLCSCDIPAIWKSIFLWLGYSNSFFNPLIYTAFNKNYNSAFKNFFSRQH

[3] = toxicity toward HepG2 liver cells – cell-based, plate reader, cherry-pick, antagonist series, cytotoxicity control, dose response (AID 743416); type: functional
[4] = biological target: Serine/threonine-protein phosphatase PP1-alpha catalytic subunit (Homo sapiens, UniProt P62136); assay: inhibition of protein phosphatase 1 activity – biochemical, fluorescence, dose response (AID 2394)
Serine/threonine-protein phosphatase PP1-alpha catalytic subunit, sequence (P62136 whole entry): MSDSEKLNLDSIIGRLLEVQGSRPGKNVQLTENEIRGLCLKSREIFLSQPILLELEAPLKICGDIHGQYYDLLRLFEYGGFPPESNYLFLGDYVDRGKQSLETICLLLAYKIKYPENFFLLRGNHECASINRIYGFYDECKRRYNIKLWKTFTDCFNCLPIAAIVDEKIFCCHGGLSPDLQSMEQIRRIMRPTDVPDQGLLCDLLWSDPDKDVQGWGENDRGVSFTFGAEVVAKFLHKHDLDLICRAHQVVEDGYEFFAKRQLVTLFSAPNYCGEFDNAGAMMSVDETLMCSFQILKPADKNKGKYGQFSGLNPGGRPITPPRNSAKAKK

[5] = biological target: T2, Sentrin-specific protease 6 (Homo sapiens, UniProt Q9GZR1); type: functional;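 note: Luminescence-based dose-response confirmatory assay of SENP6 inhibition, following up an ultra-high-throughput screen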
T2 sequence (Q9GZR1 whole entry): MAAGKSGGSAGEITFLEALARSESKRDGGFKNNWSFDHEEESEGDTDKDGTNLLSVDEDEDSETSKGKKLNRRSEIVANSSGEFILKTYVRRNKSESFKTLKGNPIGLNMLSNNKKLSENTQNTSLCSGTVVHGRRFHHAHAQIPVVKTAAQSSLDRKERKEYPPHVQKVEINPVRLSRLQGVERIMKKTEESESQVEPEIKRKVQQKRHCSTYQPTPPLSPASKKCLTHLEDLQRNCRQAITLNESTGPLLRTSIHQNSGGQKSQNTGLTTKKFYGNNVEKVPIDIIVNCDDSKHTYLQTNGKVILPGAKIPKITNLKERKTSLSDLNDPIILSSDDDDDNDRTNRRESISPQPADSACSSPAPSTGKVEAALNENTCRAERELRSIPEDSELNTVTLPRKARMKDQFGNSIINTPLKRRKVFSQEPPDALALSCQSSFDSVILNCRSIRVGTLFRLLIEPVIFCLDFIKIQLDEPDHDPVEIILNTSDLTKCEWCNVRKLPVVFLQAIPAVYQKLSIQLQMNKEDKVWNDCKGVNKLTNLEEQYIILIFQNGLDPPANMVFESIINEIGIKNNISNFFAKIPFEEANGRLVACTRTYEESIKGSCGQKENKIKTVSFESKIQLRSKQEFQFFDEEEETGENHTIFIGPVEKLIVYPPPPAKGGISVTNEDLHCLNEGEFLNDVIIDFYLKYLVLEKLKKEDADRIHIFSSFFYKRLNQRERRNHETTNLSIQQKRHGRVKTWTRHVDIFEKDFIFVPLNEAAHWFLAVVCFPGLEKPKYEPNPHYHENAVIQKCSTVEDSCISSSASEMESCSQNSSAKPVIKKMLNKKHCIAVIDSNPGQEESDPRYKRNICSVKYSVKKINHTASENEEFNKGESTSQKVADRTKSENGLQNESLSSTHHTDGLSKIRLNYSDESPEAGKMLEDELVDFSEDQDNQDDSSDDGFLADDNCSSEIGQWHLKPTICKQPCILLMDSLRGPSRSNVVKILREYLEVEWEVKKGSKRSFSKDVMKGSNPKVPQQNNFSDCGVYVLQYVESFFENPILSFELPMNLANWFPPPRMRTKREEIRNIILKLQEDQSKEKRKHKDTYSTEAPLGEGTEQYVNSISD

[6] = biological target: T3, Protein kinase C zeta type (Homo sapiens, UniProt Q05513); type: functional;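 note: measured as one member of a broad kinase profiling panel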
T3 sequence (Q05513 whole entry): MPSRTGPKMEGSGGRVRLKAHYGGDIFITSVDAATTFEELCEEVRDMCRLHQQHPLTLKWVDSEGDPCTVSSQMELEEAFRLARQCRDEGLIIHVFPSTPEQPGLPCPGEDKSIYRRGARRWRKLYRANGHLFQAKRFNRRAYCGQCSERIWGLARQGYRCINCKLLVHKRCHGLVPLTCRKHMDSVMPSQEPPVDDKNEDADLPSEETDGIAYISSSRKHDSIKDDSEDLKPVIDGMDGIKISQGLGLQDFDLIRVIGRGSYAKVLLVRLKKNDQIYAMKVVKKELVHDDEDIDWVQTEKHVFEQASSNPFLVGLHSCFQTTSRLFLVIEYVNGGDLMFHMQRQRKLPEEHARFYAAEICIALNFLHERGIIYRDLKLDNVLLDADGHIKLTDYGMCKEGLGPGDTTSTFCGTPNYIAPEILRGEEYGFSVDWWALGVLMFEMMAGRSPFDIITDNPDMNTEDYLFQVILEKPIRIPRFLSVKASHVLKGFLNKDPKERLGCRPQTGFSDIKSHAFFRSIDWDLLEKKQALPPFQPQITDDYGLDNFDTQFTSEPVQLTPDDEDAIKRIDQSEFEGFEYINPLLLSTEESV

[7] = biological target: cGMP-dependent protein kinase 1 (Homo sapiens, UniProt Q13976); type: functional;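 note: value from a kinome panel screen with PRKG1 as the panel member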
cGMP-dependent protein kinase 1, sequence (Q13976 whole entry): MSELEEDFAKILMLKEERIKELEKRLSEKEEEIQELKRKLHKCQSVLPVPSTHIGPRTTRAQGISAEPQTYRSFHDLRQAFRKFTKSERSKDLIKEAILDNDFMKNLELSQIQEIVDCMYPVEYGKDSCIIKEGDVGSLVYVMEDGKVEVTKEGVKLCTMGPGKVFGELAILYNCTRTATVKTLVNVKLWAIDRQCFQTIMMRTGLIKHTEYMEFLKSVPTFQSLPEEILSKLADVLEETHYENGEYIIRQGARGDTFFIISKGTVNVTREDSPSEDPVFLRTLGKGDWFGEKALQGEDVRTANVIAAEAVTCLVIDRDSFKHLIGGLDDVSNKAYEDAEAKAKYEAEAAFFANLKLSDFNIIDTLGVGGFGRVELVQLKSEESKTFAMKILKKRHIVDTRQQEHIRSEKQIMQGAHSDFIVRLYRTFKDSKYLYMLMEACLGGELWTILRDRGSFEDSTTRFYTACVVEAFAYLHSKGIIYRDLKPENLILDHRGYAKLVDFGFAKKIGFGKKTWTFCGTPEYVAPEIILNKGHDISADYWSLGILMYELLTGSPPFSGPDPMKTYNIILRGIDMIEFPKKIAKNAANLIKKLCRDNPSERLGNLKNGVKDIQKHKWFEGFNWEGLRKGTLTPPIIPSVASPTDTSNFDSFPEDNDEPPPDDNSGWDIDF

[8] = biological target: Tyrosine-protein kinase Lck (Homo sapiens, UniProt P06239); type: functional;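 note: lck was assayed as one member of a kinase panel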
Tyrosine-protein kinase Lck, sequence (P06239 whole entry): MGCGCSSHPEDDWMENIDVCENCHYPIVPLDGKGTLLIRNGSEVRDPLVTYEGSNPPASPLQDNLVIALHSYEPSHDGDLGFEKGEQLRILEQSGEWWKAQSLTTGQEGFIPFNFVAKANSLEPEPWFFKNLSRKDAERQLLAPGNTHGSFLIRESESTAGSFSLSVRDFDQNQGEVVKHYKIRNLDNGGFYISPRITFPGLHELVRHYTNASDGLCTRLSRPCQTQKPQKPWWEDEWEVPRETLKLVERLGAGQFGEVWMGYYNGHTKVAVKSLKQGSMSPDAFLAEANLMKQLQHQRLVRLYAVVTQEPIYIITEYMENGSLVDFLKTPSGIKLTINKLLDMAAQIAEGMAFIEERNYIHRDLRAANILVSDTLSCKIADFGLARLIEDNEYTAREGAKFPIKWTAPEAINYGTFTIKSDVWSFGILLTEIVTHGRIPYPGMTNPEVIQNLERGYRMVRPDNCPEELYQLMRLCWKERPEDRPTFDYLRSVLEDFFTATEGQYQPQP

[9] = biological target: Tyrosine-protein kinase Blk (Homo sapiens, UniProt P51451); type: functional;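 note: obtained as one member of a kinome-wide kinase assay panel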
Tyrosine-protein kinase Blk, sequence (P51451 whole entry): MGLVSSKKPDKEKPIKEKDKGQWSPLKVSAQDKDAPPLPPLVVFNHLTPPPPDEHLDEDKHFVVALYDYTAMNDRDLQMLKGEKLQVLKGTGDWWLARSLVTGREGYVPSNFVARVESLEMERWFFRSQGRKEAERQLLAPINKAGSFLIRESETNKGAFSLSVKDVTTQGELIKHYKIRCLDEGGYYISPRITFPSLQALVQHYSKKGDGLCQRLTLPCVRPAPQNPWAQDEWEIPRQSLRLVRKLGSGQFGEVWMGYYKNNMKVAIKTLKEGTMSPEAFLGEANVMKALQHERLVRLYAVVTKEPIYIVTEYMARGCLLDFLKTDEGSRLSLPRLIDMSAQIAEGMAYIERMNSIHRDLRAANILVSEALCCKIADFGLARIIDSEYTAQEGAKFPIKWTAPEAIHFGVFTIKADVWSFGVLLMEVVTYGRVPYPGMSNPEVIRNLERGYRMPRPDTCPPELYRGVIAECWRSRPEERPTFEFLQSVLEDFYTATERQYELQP

[10] = biological target: Mitogen-activated protein kinase kinase kinase 20 (Homo sapiens, UniProt Q9NYL2); type: functional
[11] = biological target: Mitogen-activated protein kinase kinase kinase kinase 2 (Homo sapiens, UniProt Q12851); type: functional;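 note: measured as one member of a kinome-wide kinase panel, with MAP4K2 as the panel entry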
Mitogen-activated protein kinase kinase kinase kinase 2, sequence (Q12851 whole entry): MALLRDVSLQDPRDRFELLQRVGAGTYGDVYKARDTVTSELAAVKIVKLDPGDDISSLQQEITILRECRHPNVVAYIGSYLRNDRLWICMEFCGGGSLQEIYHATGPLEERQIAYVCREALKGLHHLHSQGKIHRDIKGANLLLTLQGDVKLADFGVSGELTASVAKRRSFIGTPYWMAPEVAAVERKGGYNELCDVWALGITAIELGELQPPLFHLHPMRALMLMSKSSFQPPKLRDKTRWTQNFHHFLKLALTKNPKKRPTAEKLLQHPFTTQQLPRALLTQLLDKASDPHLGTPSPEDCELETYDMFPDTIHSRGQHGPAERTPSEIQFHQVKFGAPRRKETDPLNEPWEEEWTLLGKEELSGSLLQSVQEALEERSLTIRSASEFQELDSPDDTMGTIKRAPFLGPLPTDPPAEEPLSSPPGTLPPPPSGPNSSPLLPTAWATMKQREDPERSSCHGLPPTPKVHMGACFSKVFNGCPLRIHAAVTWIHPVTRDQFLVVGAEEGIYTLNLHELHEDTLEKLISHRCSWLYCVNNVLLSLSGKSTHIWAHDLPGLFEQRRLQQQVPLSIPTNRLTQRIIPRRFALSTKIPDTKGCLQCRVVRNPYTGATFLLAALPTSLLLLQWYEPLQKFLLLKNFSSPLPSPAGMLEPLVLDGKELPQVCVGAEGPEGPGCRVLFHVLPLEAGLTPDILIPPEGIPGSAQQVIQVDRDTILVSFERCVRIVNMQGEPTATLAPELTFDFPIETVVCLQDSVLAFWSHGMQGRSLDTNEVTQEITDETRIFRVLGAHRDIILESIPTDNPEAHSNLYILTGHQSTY

Misshapen-like kinase 1 = Misshapen-like kinase 1 (Homo sapiens, UniProt Q8N4C8); type: functional;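 note: kinome panel screen with MINK as the panel member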
[12] = biological target: cAMP-dependent protein kinase catalytic subunit PRKX (Homo sapiens, UniProt P51817); type: functional
cAMP-dependent protein kinase catalytic subunit PRKX, sequence (P51817 whole entry): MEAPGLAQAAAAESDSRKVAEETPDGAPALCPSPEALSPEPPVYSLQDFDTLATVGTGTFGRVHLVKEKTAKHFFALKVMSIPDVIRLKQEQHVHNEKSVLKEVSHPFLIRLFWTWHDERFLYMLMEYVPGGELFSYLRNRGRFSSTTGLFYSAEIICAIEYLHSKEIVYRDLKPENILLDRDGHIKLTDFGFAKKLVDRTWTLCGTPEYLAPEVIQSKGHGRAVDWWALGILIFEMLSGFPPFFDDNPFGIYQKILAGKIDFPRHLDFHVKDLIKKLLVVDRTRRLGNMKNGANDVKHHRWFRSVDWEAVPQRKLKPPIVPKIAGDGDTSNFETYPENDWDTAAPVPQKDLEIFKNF

[13] = biological target: Vascular endothelial growth factor receptor 3 (Homo sapiens, UniProt P35916); type: functional;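 note: value from a kinome-wide profiling panel, with FLT4 as the panel member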
[14] = biological target: Serine/threonine-protein kinase PLK1 (Homo sapiens, UniProt P53350); type: functional;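 note: PLK1 measured as one member of a kinome-wide profiling panel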
Serine/threonine-protein kinase PLK1, sequence (P53350 whole entry): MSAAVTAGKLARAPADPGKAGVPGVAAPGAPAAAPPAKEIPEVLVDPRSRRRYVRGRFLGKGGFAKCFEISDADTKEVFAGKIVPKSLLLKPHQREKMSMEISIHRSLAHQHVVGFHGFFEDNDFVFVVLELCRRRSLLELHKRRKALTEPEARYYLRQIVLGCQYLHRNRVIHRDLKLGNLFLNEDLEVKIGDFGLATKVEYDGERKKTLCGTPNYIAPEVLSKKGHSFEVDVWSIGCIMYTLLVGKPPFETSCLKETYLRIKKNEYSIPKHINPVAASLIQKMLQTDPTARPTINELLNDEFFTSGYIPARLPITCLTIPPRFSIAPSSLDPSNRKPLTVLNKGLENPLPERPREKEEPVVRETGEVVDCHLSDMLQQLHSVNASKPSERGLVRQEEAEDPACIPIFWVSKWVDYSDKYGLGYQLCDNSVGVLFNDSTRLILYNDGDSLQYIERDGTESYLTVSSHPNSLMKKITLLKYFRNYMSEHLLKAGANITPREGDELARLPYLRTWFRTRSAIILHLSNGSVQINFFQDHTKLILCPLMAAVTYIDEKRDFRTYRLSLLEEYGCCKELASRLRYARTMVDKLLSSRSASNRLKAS

[15] = biological target: Serine/threonine-protein kinase MRCK alpha (Homo sapiens, UniProt Q5VT25); type: functional
[16] = biological target: Inhibitor of nuclear factor kappa-B kinase subunit beta (Homo sapiens, UniProt O14920); type: functional
Inhibitor of nuclear factor kappa-B kinase subunit beta, sequence (O14920 whole entry): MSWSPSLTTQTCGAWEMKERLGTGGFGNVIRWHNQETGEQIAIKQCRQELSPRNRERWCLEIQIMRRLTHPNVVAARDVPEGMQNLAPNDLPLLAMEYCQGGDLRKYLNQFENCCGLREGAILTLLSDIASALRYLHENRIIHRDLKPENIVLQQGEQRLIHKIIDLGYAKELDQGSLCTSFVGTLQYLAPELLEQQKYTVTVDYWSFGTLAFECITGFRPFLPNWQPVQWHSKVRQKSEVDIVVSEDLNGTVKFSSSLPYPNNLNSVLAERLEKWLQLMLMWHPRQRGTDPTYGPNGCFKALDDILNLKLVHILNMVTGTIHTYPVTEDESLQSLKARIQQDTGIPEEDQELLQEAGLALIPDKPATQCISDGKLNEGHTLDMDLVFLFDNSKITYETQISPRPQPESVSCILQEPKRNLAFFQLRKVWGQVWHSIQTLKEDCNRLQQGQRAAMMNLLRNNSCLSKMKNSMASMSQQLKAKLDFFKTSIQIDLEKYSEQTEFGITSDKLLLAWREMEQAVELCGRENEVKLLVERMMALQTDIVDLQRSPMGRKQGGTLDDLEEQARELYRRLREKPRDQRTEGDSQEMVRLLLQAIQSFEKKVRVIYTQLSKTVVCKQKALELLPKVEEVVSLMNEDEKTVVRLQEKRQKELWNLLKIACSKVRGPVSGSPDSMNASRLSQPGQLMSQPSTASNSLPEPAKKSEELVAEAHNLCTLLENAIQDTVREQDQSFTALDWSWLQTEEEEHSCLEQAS

Compound: CCCc1nc2c(=O)n(C)c(=O)nc-2n(C)n1
IC50 [1]: < 1.24 µM (active)
EC50 [2]: > 92.5 µM (inactive)
AC50 [3]: 3.39 µM (active)

IC50 [4]: > 67 µM (not active)
IC50 [5]: 11.6 µM (active)
Compound: CC(=O)c1ccc(NC2=C(N3CCOCC3)C(=O)c3ccccc3C2=O)cc1

Ki [6]: > 7.94 µM (inactive)
Ki [7]: 0.316 µM (active)
Ki [8]: 2 µM (active)
Ki [9]: > 1.58 µM (inactive)
Ki [10]: > 7.94 µM (inactive)
Ki [11]: > 6.31 µM (inactive)
Ki (Misshapen-like kinase 1): > 7.94 µM (inactive)
Ki [12]: 1 µM (active)
Ki [13]: 0.1 µM (active)
Ki [14]: 0.0126 µM (active)
Ki [15]: > 10 µM (inactive)
Ki [16]: > 3.16 µM (inactive)
Compound: COc1cc2ncn(-c3cc(OCc4ccccc4C(F)(F)F)c(C(N)=O)s3)c2cc1OC [GW843682X]
